# Molecular target: T1, hPARG (Homo sapiens, UniProt Q86W56)
# T1 construct: made in house; host or cells: E. coli
# Experiment: PARG enzymatic activity assay (HTRF)
# Assay type: biochemical
# Conditions: C-terminal His6-tag hPARG 65 pM, biotinylated-NAD ribosylated PARP1 substrate 8 nM
# Summary of the method: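 His6-tagged hPARG from E. coli (65 pM final) preincubated 60 min RT with compound (10-point 4-fold dilution), then 8 nM biotinylated NAD-ribosylated PARP1 added for 10 min RT in Tris pH 7.4 buffer with EDTA, EGTA, DTT, KCl. HTRF detection (Eu-streptavidin/anti-His XL665, 620/665 nm); IC50 from 4-parameter fit against DMSO and no-enzyme controls.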
# T1 sequence (Q86W56 whole entry): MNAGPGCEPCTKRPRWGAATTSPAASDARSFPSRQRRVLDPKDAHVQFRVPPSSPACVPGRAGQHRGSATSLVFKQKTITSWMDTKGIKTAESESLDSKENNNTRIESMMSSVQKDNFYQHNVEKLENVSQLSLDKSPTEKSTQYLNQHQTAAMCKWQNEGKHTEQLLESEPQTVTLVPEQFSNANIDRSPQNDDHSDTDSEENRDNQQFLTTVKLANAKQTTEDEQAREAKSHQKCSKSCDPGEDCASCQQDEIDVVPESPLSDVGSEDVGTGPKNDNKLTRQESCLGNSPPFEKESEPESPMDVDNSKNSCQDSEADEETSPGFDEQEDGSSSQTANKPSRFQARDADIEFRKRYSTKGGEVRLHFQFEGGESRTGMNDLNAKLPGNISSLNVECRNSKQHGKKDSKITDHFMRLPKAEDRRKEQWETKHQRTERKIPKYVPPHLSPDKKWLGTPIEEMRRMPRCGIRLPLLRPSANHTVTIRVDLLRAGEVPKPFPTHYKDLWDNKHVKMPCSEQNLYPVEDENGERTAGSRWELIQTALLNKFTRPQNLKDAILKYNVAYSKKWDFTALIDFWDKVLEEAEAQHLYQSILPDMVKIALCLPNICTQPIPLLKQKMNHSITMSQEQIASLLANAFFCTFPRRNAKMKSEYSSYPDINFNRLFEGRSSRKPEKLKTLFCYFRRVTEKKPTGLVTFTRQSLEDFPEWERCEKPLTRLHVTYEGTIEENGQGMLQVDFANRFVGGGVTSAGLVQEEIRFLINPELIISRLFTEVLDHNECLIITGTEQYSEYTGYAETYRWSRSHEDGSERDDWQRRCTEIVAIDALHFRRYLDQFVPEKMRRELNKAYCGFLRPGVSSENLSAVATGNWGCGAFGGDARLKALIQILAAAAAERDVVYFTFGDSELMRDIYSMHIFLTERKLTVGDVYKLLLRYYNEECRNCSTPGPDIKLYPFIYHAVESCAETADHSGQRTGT
row,IC50 [nM],SMILES
1,≤ 100,"CN(CC1COCCO1)c1ncnc2c1c1ccc(S(=O)(=O)NC3(C#N)CC3)cc1n2-c1nnc(C(F)F)s1 (stereo not shown) [Example 69, 4-(((1,4-Dioxan-2-yl)methyl)(methyl)amino)-N-(1-cyanocyclopropyl)-9-(5-(difluoromethyl)-1,3,4-thiadiazol-2-yl)-9H-pyrimido[4,5-b]indole-7-sulfonamide]"
2,100 to 1000,"CN(c1ncnc2c1c1ccc(S(=O)(=O)NC3(C#N)CC3)cc1n2-c1nnc(C(F)F)s1)[C@H]1CCOC1 [Example 70, (S)-N-(1-Cyanocyclopropyl)-9-(5-(difluoromethyl)-1,3,4-thiadiazol-2-yl)-4-(methyl(tetrahydrofuran-3-yl)amino)-9H-pyrimido[4,5-b]indole-7-sulfonamide]"
3,> 1000,"Cc1nc(C)n(CCN(C)c2ncnc3c2c2ccc(S(=O)(=O)NC4(C#N)CC4)cc2n3-c2nnc(C(F)F)s2)n1 [Example 71, N-(1-Cyanocyclopropyl)-9-(5-(difluoromethyl)-1,3,4-thiadiazol-2-yl)-4-((2-(3,5-dimethyl-1H-1,2,4-triazol-1-yl)ethyl)(methyl)amino)-9H-pyrimido[4,5-b]indole-7-sulfonamide]"
4,100 to 1000,"CN(CCN1CCCS1(=O)=O)c1ncnc2c1c1ccc(S(=O)(=O)NC3(C#N)CC3)cc1n2-c1nnc(C(F)F)s1 [Example 72, N-(1-Cyanocyclopropyl)-9-(5-(difluoromethyl)-1,3,4-thiadiazol-2-yl)-4-((2-(1,1-dioxidoisothiazolidin-2-yl)ethyl)(methyl)amino)-9H-pyrimido [4,5-b]indole-7-sulfonamide]"
5,≤ 100,"CN(C[C@H]1CC[C@@H](O)CC1)c1ncnc2c1c1ccc(S(=O)(=O)NC3(C#N)CC3)cc1n2-c1nnc(C(F)F)s1 [Example 73, N-(1-Cyanocyclopropyl)-9-(5-(difluoromethyl)-1,3,4-thiadiazol-2-yl)-4-((((1s,4s)-4-hydroxycyclohexyl)methyl)(methyl)amino)-9H-pyrimido[4,5-b]indole-7-sulfonamide]"
6,≤ 100,"CN(C)[C@H]1CCCC[C@@H]1N(C)c1ncnc2c1c1ccc(S(=O)(=O)NC3(C#N)CC3)cc1n2-c1nnc(C(F)F)s1 [Example 74, N-(1-Cyanocyclopropyl)-9-(5-(difluoromethyl)-1,3,4-thiadiazol-2-yl)-4-(((1S,2S)-2-(dimethylamino)cyclohexyl)(methyl)amino)-9H-pyrimido[4,5-b]indole-7-sulfonamide]"
7,≤ 100,"CN(CC1(C#N)CC1)c1ncnc2c1c1ccc(S(=O)(=O)NC3(C#N)CC3)cc1n2-c1nnc(C(F)F)s1 [Example 75, N-(1-Cyanocyclopropyl)-4-(((1-cyanocyclopropyl)methyl)(methyl)amino)-9-(5-(difluoromethyl)-1,3,4-thiadiazol-2-yl)-9H-pyrimido[4,5-b]indole-7-sulfonamide]"
8,≤ 100,"CN(CCc1ccccn1)c1ncnc2c1c1ccc(S(=O)(=O)NC3(C#N)CC3)cc1n2-c1nnc(C(F)F)s1 [Example 76, N-(1-Cyanocyclopropyl)-9-(5-(difluoromethyl)-1,3,4-thiadiazol-2-yl)-4-(methyl(2-(pyridin-2-yl)ethyl)amino)-9H-pyrimido[4,5-b]indole-7-sulfonamide]"
9,100 to 1000,"CN(CCN1CCC(F)(F)CC1)c1ncnc2c1c1ccc(S(=O)(=O)NC3(C#N)CC3)cc1n2-c1nnc(C(F)F)s1 [Example 77, N-(1-Cyanocyclopropyl)-9-(5-(difluoromethyl)-1,3,4-thiadiazol-2-yl)-4-((2-(4,4-difluoropiperidin-1-yl)ethyl)(methyl)amino)-9H-pyrimido[4,5-b]indole-7-sulfonamide]"
10,≤ 100,"CN(CCN1CCS(=O)(=O)CC1)c1ncnc2c1c1ccc(S(=O)(=O)NC3(C#N)CC3)cc1n2-c1nnc(C(F)F)s1 [Example 78, N-(1-Cyanocyclopropyl)-9-(5-(difluoromethyl)-1,3,4-thiadiazol-2-yl)-4-((2-(1,1-dioxidothiomorpholino)ethyl)(methyl)amino)-9H-pyrimido[4,5-b]indole-7-sulfonamide]"
11,≤ 100,"N#CC1(NS(=O)(=O)c2ccc3c4c(NCC5COCCO5)ncnc4n(-c4nnc(C(F)F)s4)c3c2)CC1 (stereo not shown) [Example 79, 4-(((1,4-Dioxan-2-yl)methyl)amino)-N-(1-cyanocyclopropyl)-9-(5-(difluoromethyl)-1,3,4-thiadiazol-2-yl)-9H-pyrimido[4,5-b]indole-7-sulfonamide]"
12,≤ 100,"CN(CC1CCCN1C)c1ncnc2c1c1ccc(S(=O)(=O)NC3(C#N)CC3)cc1n2-c1nnc(C(F)F)s1 (stereo not shown) [Example 80, N-(1-Cyanocyclopropyl)-9-(5-(difluoromethyl)-1,3,4-thiadiazol-2-yl)-4-(methyl((1-methylpyrrolidin-2-yl)methyl)amino)-9H-pyrimido[4,5-b]indole-7-sulfonamide]"
13,≤ 100,"C[C@@H]1CCCN(c2ncnc3c2c2ccc(S(=O)(=O)NC4(C#N)CC4)cc2n3-c2nnc(C(F)F)s2)C1 [Example 81, (R)-N-(1-Cyanocyclopropyl)-9-(5-(difluoromethyl)-1,3,4-thiadiazol-2-yl)-4-(3-methylpiperidin-1-yl)-9H-pyrimido[4,5-b]indole-7-sulfonamide]"
14,≤ 100,"N#CC1(NS(=O)(=O)c2ccc3c4c(NC(=O)CN5CCOCC5)ncnc4n(-c4nnc(C(F)F)s4)c3c2)CC1 [Example 82, N-(7-(N-(1-Cyanocyclopropyl)sulfamoyl)-9-(5-(difluoromethyl)-1,3,4-thiadiazol-2-yl)-9H-pyrimido[4,5-b]indol-4-yl)-2-morpholinoacetamide]"
15,100 to 1000,"N#CC1(NS(=O)(=O)c2ccc3c4c(SCCN5CCOCC5)ncnc4n(-c4nnc(C(F)F)s4)c3c2)CC1 [Example 83, N-(1-Cyanocyclopropyl)-9-(5-(difluoromethyl)-1,3,4-thiadiazol-2-yl)-4-((2-morpholinoethyl)thio)-9H-pyrimido[4,5-b]indole-7-sulfonamide]"
16,100 to 1000,"COCCSc1ncnc2c1c1ccc(S(=O)(=O)NC3(C#N)CC3)cc1n2-c1nnc(C(F)F)s1 [Example 84, N-(1-Cyanocyclopropyl)-9-(5-(difluoromethyl)-1,3,4-thiadiazol-2-yl)-4-((2-methoxyethyl)thio)-9H-pyrimido[4,5-b]indole-7-sulfonamide]"
17,≤ 100,"N#CC1(NS(=O)(=O)c2ccc3c4c(/C=C/CN5CCOCC5)ncnc4n(-c4nnc(C(F)F)s4)c3c2)CC1 [Example 85, (E)-N-(1-Cyanocyclopropyl)-9-(5-(difluoromethyl)-1,3,4-thiadiazol-2-yl)-4-(3-morpholinoprop-1-en-1-yl)-9H-pyrimido[4,5-b]indole-7-sulfonamide]"
18,≤ 100,"N#CC1(NS(=O)(=O)c2ccc3c4c(C#CCN5CCOCC5)ncnc4n(-c4nnc(C(F)F)s4)c3c2)CC1 [Example 86, N-(1-Cyanocyclopropyl)-9-(5-(difluoromethyl)-1,3,4-thiadiazol-2-yl)-4-(3-morpholinoprop-1-yn-1-yl)-9H-pyrimido[4,5-b]indole-7-sulfonamide]"
19,≤ 100,"N#CC1(NS(=O)(=O)c2ccc3c4c(CCCN5CCOCC5)ncnc4n(-c4nnc(C(F)F)s4)c3c2)CC1 [Example 87, N-(1-Cyanocyclopropyl)-9-(5-(difluoromethyl)-1,3,4-thiadiazol-2-yl)-4-(3-morpholinopropyl)-9H-pyrimido[4,5-b]indole-7-sulfonamide]"

# Source: US20260049088A1, “TRICYCLIC HETEROCYCLIC DERIVATIVES, COMPOSITIONS AND USES THEREOF” (Danatlas Pharmaceuticals Co., Ltd., priority 2023, published 2026)
